Source: patent US9822120B2, “Protein kinase inhibitors” (Pharmascience Inc., priority 2013, dated 2017)

Legend:
[1] = biological target: histidine tagged recombinant human full-length Bruton Agammaglobulinemia Tyrosine Kinase (Btk) (Homo sapiens (Human), UniProt Q06187); experiment: Btk kinase inhibition assay, Method A (fluorescence polarization, KinEASE FP Fluorescein Green); format: biochemical; conditions: 10 μM ATP, 250 μM substrate, 60 minutes room temperature, Ki calculated from IC50 by Cheng-Prusoff equation
Description: Btk Kinase Inhibition Assays
Fluorescence polarization-based kinase assays were performed in 384 well-plate format using histidine tagged recombinant human full-length Bruton Agammaglobulinemia Tyrosine Kinase (Btk) and a modified protocol of the KinEASE™ FP Fluorescein Green Assay supplied from Millipore®. Kinase reaction were performed at room temperature for 60 minutes in presence of 250 μM substrate, 10 μM ATP and variable test article concentrations. The reaction was stopped with EDTA/kinease detection reagents. Phosphorylation of the substrate peptide was detected by fluorescence polarization measured with a Tecan 500 instrument. From the dose-response curve obtained, the IC50 was calculated using Graph Pad Prisms® using a non linear fit curve. The Km for ATP on each enzyme was experimentally determined and the Ki values calculated using the Cheng-Prusoff equation (see: Cheng Y, Prusoff W. H. (1973) Relationship between the inhibition constant (K1) and the concentration of inhibitor which causes 50% inhibition (I50) of an enzymatic reaction”. Biochem. Pharmacol. 22 (23): 3099-108). ki values are reported in Tables 2a and 2b: […]

splenocytes = experiment: Splenic cell proliferation assay (anti-IgM stimulated, Cell Titer-Glo); format: cell-based; conditions: Splenocyte; CD1 mouse splenocytes, 1 h pre-treatment, 2.5 ug/ml anti-IgM F(ab')2 for 72 h; read-out: EC50 (nM), Inhibition of splenic cell proliferation
Text: Cellular Assay Splenic Cell Proliferation Assay
Proliferation of splenocytes in response to anti-IgM can be blocked by inhibition of Btk. Splenocytes were obtained from 6 week old male CD1 mice (Charles River Laboratories Inc.). Mouse spleens were manually disrupted in PBS and filtered using a 70 um cell strainer followed by ammonium chloride red blood cell lysis. Cells were washed, resuspended in Splenocyte Medium (HyClone RPMI supplemented with 10% heat-inactivated FBS, 0.5× non-essential amino acids, 10 mM HEPES, 50 uM beta mercaptoethanol) and incubated at 37° C., 5% CO2 for 2 h to remove adherent cells. Suspension cells were seeded in 96 well plates at 50,000 cells per well and incubated at 37° C., 5% CO2 for 1 h. Splenocytes were pre-treated in triplicate with 10,000 nM curves of Formula I compounds for 1 h, followed by stimulation of cell proliferation with 2.5 ug/ml anti-IgM F(ab′)2 (Jackson ImmunoResearch) for 72 h. Cell proliferation was measured by Cell Titer-Glo Luminescent Assay (Promega). EC50 values (50% proliferation in the presence of compound as compared to vehicle treated controls) were calculated from dose response compound curves using GraphPad Prism Software.

human BTK kinase (hBTK) = human BTK kinase (hBTK) (Homo sapiens (Human), UniProt Q06187); experiment: Btk kinase inhibition assay, Method B (KinaseProfiler radiometric protein kinase assay, Eurofins); format: biochemical; conditions: [γ-33P-ATP], 40 minutes room temperature
Description: In vitro potency of selected compound was defined against human BTK kinase (hBTK) using KinaseProfiler radiometric protein kinase assays performed at Eurofins Pharma Discovery Services UK Limited.
hBTK kinase is diluted in buffer and all compounds were prepared to 50× final assay concentration in 100% DMSO. This working stock of the compound was added to the assay well as the first component in the reaction, followed by the remaining components as detailed in the assay protocol listed above. The reaction was initiated by the addition of the MgATP mix. The kinase reaction was performed at room temperature for 40 minutes in presence of 250 μM substrate, 10 mM MgAcetate, [γ-33P-ATP] (specific activity approx. 500 cpm/pmol, concentration as required) and variable test article concentrations. The ATP concentrations in the assays were with 15 μM of the apparent. The reaction was stopped by the addition of 3% phosphoric acid solution. 10 μL of the reaction is then spotted onto a P30 filtermat and washed three times for 5 minutes in 75 mM phosphoric acid and once in methanol prior to drying and scintillation counting. In addition positive control wells contain all components of the reaction, except the compound of interest; however, DMSO (at a final concentration of 2%) were included in these wells to control for solvent effects as well as blank wells contain all components of the reaction, with a reference inhibitor replacing the compound of interest. This abolishes kinase activity and establishes the base-line (0% kinase activity remaining). The potency of each compound was reported by estimating the EC50.

human BTK kinase (hBTK), sequence (Q06187 whole entry): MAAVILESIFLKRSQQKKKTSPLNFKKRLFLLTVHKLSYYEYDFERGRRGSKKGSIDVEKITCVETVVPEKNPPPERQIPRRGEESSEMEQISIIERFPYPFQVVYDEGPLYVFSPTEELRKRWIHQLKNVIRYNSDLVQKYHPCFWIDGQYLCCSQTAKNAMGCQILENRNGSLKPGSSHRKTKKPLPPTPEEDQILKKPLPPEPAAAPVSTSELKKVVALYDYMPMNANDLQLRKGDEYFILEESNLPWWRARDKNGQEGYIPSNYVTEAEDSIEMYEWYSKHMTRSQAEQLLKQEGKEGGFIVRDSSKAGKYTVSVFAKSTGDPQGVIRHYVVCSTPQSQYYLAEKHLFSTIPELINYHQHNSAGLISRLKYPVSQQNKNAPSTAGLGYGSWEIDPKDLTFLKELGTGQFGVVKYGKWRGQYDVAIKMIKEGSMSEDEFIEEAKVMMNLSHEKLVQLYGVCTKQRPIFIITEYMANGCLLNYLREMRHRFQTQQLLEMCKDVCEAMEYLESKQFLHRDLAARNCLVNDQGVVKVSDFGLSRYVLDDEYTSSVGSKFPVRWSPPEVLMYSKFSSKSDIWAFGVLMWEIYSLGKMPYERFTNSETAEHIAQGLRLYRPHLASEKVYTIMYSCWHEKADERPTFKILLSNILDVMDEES
histidine tagged recombinant human full-length Bruton Agammaglobulinemia Tyrosine Kinase (Btk), sequence (Q06187 whole entry): as above

Row | Ki [1] [nM] | EC50 (human BTK kinase (hBTK)) [nM] | Compound | EC50 (splenocytes) [nM]
1 | < 100 |  | Cc1ncc(COc2cc(F)cc(Oc3ccc(-c4nc(C5CCCC5)n5ccnc(N)c45)cc3)c2)cn1 [Compound 6] | < 100
2 | < 100 |  | Cc1ncc(COc2cc(F)cc(Oc3ccc(-c4nc(C5CCOCC5)n5ccnc(N)c45)cc3)c2)s1 [Compound 7] | < 100
3 | < 100 |  | Cc1ccc(COc2cc(F)cc(Oc3ccc(-c4nc(C5CCOCC5)n5ccnc(N)c45)cc3)c2)cn1 [Compound 8] | < 100
4 | < 100 |  | Cc1ncc(COc2cc(F)cc(Oc3ccc(-c4nc(C5CCOCC5)n5ccnc(N)c45)cc3)c2)cn1 [Compound 9] | < 100
5 | < 100 |  | Cc1ncc(COc2cc(F)cc(Oc3ccc(-c4nc(C5CC5)n5ccnc(N)c45)cc3)c2)cn1 [Compound 11] | < 100
6 | < 100 |  | Cc1ncc(COc2cc(F)cc(Oc3ccc(-c4nc([C@H]5C[C@@](C)(O)C5)n5ccnc(N)c45)cc3)c2)cn1 [Compound 13] | < 100
7 | < 100 |  | Cc1ncc(COc2cc(F)cc(Oc3ccc(-c4nc(C5CC(=O)C5)n5ccnc(N)c45)cc3)c2)cn1 [Compound 21] | < 100
8 | < 100 |  | Cc1ncc(COc2cc(F)cc(Oc3ccc(-c4nc([C@@H]5CCCNC5)n5ccnc(N)c45)cc3)c2)cn1 [Compound 22] | < 100
9 | < 100 |  | Cc1ncc(COc2cc(F)cc(Oc3ccc(-c4nc(C5CNC5)n5ccnc(N)c45)cc3)c2)cn1 [Compound 27] | 100 to 1000
10 |  | < 100 | Cc1ncc(COc2cc(F)cc(Oc3ccc(-c4nc([C@H]5C[C@@H](O)C5)n5ccnc(N)c45)cc3)c2)cn1 [Compound 29] | < 100
11 |  | < 100 | Cc1ncc(COc2cc(F)cc(Oc3ccc(-c4nc(C5CCNCC5)n5ccnc(N)c45)cc3)c2)cn1 [Compound 30] | < 100
12 |  | < 100 | CC(=O)N1CCC(c2nc(-c3ccc(Oc4cc(F)cc(OCc5cnc(C)nc5)c4)cc3)c3c(N)nccn23)CC1 [Compound 31] | < 100
13 |  | < 100 | Cc1ncc(COc2cc(F)cc(Oc3ccc(-c4nc([C@H]5C[C@@H](N6CCOCC6)C5)n5ccnc(N)c45)cc3)c2)cn1 [Compound 33] | < 100

Second part, the compound before the results:

Row | Compound | Ki [1] [nM] | EC50 (human BTK kinase (hBTK)) [nM] | EC50 (splenocytes) [nM]
14 | Cc1ncc(COc2cc(F)cc(Oc3ccc(-c4nc(C(C)C)n5ccnc(N)c45)cc3)c2)s1 [Compound 1] | < 100 |  | < 100
15 | Cc1ncc(COc2cc(F)cc(Oc3ccc(-c4nc(C(C)C)n5ccnc(N)c45)cc3)c2)cn1 [Compound 2] | < 100 |  | < 100
16 | Cc1ccc(COc2cc(F)cc(Oc3ccc(-c4nc(C(C)C)n5ccnc(N)c45)cc3)c2)cn1 [Compound 3] | < 100 |  | < 100
17 | Cc1ncc(COc2cc(F)cc(Oc3ccc(-c4nc(C5CCCC5)n5ccnc(N)c45)cc3)c2)s1 [Compound 4] | < 100 |  | < 100
18 | Cc1ccc(COc2cc(F)cc(Oc3ccc(-c4nc(C5CCCC5)n5ccnc(N)c45)cc3)c2)cn1 [Compound 5] | < 100 |  | < 100
19 | Cc1ncc(COc2cc(F)cc(Oc3ccc(-c4nc(C5CC5)n5ccnc(N)c45)cc3)c2)s1 [Compound 10] | < 100 |  | < 100
20 | Cc1ncc(COc2cc(F)cc(Oc3ccc(-c4nc(C5(C)COC5)n5ccnc(N)c45)cc3)c2)cn1 [Compound 12] | < 100 |  | < 100
21 | Cc1ncc(COc2cc(F)cc(Oc3ccc(-c4nc(C5CC(O)(CO)C5)n5ccnc(N)c45)cc3)c2)s1 (stereo not shown) [Compound 14] | < 100 |  | < 100
22 | Cc1ncc(COc2cc(F)cc(Oc3ccc(-c4nc(C5(C)COC5)n5ccnc(N)c45)cc3)c2)s1 [Compound 15] | < 100 |  | < 100
23 | Cc1ncc(COc2cc(F)cc(Oc3ccc(-c4nc([C@H]5C[C@@](C)(O)C5)n5ccnc(N)c45)cc3)c2)s1 [Compound 16] | < 100 |  | < 100
24 | Cc1ncc(COc2cc(F)cc(Oc3ccc(-c4nc(C5CC(=O)C5)n5ccnc(N)c45)cc3)c2)s1 [Compound 17] | < 100 |  | < 100
25 | Cc1ncc(COc2cc(F)cc(Oc3ccc(-c4nc(CCN5CCCC5)n5ccnc(N)c45)cc3)c2)cn1 [Compound 18] | < 100 |  | 100 to 1000
26 | Cc1ncc(COc2cc(F)cc(Oc3ccc(-c4nc(C5CC(O)(CO)C5)n5ccnc(N)c45)cc3)c2)cn1 (stereo not shown) [Compound 19] | < 100 |  | < 100
27 | Cc1ncc(COc2cc(F)cc(Oc3ccc(-c4nc([C@H]5C[C@@H](N6CCN(C)CC6)C5)n5ccnc(N)c45)cc3)c2)s1 [Compound 20] | < 100 |  | < 100
28 | CC(=O)N1CCC[C@@H](c2nc(-c3ccc(Oc4cc(F)cc(OCc5cnc(C)nc5)c4)cc3)c3c(N)nccn23)C1 [Compound 24] | < 100 |  | < 100
29 | C[C@]1(O)C[C@@H](c2nc(-c3ccc(Oc4cc(F)cc(OCc5ccccc5)c4)cc3)c3c(N)nccn32)C1 [Compound 25] | < 100 |  | < 100
30 | CC(=O)N1CC(c2nc(-c3ccc(Oc4cc(F)cc(OCc5cnc(C)nc5)c4)cc3)c3c(N)nccn23)C1 [Compound 26] | < 100 |  | < 100
31 | Cc1ncc(COc2cc(F)cc(Oc3ccc(-c4nc([C@@H]5CCCN(C6COC6)C5)n5ccnc(N)c45)cc3)c2)cn1 [Compound 34] |  | < 100 | < 100
32 | CC(C)c1nc(-c2ccc(Oc3cc(F)cc(OCc4ccc(CO)nc4)c3)cc2)c2c(N)nccn12 [Compound 35] |  | < 100 | < 100
